According to PubChem BioAssay (NCI):
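Cells were grown in 96-well plates and exposed to each compound for 48 hours at five concentrations; endpoints were interpolated linearly between bracketing concentrations, or set to the highest concentration if not reached. GI50 = concentration required for 50% inhibition of growth. The concentration for full growth arrest is given as TGI.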

Tests used:
Assay in all cases: NCI tumour cell line growth inhibition, 48 h
KM12 colon = tested on: KM12 colon
SF-268 CNS = tested on: SF-268 CNS
K-562 leukemia = tested on: K-562 leukemia
MDA-MB-231 breast = tested on: MDA-MB-231 breast
HOP-92 NSCLC = tested on: HOP-92 NSCLC
HS 578T breast = tested on: HS 578T breast
U251 CNS = tested on: U251 CNS
SF-295 CNS = tested on: SF-295 CNS
DU-145 prostate = tested on: DU-145 prostate
SR leukemia = tested on: SR leukemia

Row | SMILES | GI50 (KM12 colon) [µM] | TGI (KM12 colon) [µM] | GI50 (SF-268 CNS) [µM] | TGI (SF-268 CNS) [µM] | GI50 (K-562 leukemia) [µM] | TGI (K-562 leukemia) [µM] | GI50 (MDA-MB-231 breast) [µM] | TGI (MDA-MB-231 breast) [µM] | GI50 (HOP-92 NSCLC) [µM] | TGI (HOP-92 NSCLC) [µM] | GI50 (HS 578T breast) [µM] | TGI (HS 578T breast) [µM] | GI50 (U251 CNS) [µM] | TGI (U251 CNS) [µM] | GI50 (SF-295 CNS) [µM] | TGI (SF-295 CNS) [µM] | GI50 (DU-145 prostate) [µM] | TGI (DU-145 prostate) [µM] | GI50 (SR leukemia) [µM] | TGI (SR leukemia) [µM]
1 | NS(=O)(=O)c1ccc(N2N=C3c4ccccc4CC3C2c2cccs2)cc1 (stereo not drawn) | 15.7 | 57.2 | > 100 | > 100 | 5.75 | 81.9 | 16.8 | 40.8 | 25.8 | 55.8 | 28.7 | 76.9 | 19.4 | 39.6 | 16.2 | 34.4 | 14.5 | 37.7 |  | 
2 | CCCCCN(CCCCC)CC(O)c1cc(Cl)ccc1OC (stereo not drawn) | 7.35 | 21.3 | 11.4 | 24.4 | 3.81 | 20.3 | 5.38 | 20 |  |  | 12.9 | 33.6 | 10.7 | 25.5 | 1.38 | 12.6 | 10.8 | 23.5 | 4.78 | 30.5
3 | O=S1(=O)N(Cc2ccccc2)[C@@H](Cc2ccccc2)[C@H](O)[C@H](O)[C@H](Cc2ccccc2)N1Cc1ccccc1 | 2.94 | 5.84 | 3.44 | 8.03 | 3.05 | 9.38 | 2.82 | 6.39 | 3.15 | 6.68 | 3.27 | 8.38 | 3.07 | 6.47 | 2.62 | 5.68 | 3.21 | 7.55 |  | 
4 | O=C(Nc1ccc(F)cc1F)c1cc(Cl)ccc1O | 2.31 | 7.68 | 1.3 | 11.6 |  |  | 1.74 | 7.48 | 0.232 | 0.942 | 0.978 | 7.25 | 1.38 | 16 | 1.56 | 3.16 | 3 | 69.6 |  | 
5 | COC(=O)C1C(=O)CC2CCCCC21 (stereo not drawn) |  | > 100 |  | > 100 |  | > 100 |  |  |  |  |  |  |  | > 100 |  |  |  |  |  | > 100
6 | CCN1CCN(c2cc(C)nc(N(CCCNc3ccnc4cc(Cl)ccc34)Cc3ccc4c(c3)OCO4)n2)CC1 | 4.14 | > 100 | 2.57 | 7.9 | 1.91 | 7.86 | 1.93 | 4.44 | 1.61 | 4.67 | 1.93 | 5.26 | 2.13 | 4.73 | 1.91 | 3.82 |  |  |  | 
7 | Cc1cc(NC(=O)C2C3C=CC(O3)C2C(=O)O)no1 (stereo not drawn) |  |  |  | 51.9 |  | 42.5 |  |  |  | > 100 |  |  |  | 53.8 |  | > 100 |  |  |  | 42.8
8 | CC1(C)C2CCC3(OCCO3)C1C(O)C2 (stereo not drawn) |  | > 100 |  | > 100 |  | > 100 |  |  |  | > 100 |  |  |  | > 100 |  | > 100 |  |  |  | 
